According to ChEMBL document CHEMBL6087404, “Naphthoindole-2-carboxamides as a lipophilic chemotype of hetarene-anthraquinones potent against P-gp resistant tumor cells” (Eur J Med Chem, 2025):
Calls of active or inactive are those of the source. The calls are words filed in the database; no cut-off is given here.

Experiments:
[1] = target: T1, DNA topoisomerase 1 (Homo sapiens) (UniProt P11387); experiment: Inhibition of Top1 (unknown origin)-mediated unwinding of supercoiled DNA at 5 uM incubated for 30 mins by electrophoretic analysis
T1 sequence (whole entry): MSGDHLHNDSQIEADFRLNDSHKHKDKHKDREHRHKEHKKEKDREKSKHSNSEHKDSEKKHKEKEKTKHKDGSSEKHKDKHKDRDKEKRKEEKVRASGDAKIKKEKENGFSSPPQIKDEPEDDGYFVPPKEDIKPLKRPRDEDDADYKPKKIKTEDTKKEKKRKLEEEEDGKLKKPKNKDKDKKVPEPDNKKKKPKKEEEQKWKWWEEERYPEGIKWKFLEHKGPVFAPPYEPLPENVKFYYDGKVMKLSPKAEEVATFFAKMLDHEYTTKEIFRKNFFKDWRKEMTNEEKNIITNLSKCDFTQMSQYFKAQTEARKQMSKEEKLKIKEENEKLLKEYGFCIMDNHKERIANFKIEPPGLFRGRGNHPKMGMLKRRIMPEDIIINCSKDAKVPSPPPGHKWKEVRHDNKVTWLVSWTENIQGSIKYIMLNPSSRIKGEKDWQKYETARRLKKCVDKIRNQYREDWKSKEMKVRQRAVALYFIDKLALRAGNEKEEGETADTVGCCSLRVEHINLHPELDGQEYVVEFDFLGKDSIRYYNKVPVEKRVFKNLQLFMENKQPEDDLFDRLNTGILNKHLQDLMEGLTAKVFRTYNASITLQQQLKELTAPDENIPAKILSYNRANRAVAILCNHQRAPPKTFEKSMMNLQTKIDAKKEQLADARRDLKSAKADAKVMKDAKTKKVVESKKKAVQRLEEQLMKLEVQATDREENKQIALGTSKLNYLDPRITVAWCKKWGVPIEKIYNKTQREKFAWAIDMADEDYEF

[2] = tested on: K562/4; experiment: Effect on cell cycle distribution in human K562/4 cells assessed as cells with fragmented DNA at sub-G1 phase at 0.75 uM incubated for 48 hrs by PI staining based flow cytometry (reference value: 4 %); type: functional
[3] = tested on: K562; experiment: Induction of apoptosis in human K562 cells assessed as necrotic cells at 1 uM incubated for 48 hrs by Annexin V-FITC/PI staining based flow cytometry (reference value: 10.8 %); type: functional
[4] = tested on: K562; experiment: Effect on cell cycle distribution in human K562 cells assessed as cells with fragmented DNA at sub-G1 phase at 0.75 uM incubated for 24 hrs by PI staining based flow cytometry (reference value: 3 %); type: functional
[5] = Drug uptake in P-gp+ human K562i/S9 cells at 2 uM incubated for 3 to 120 hrs by flow cytometry; type: ADME, cell-based; conditions: k562i/s9, 2 µM, time 3-120 hrs
[6] = tested on: K562; experiment: Induction of apoptosis in human K562 cells assessed as late apoptotic cells at 1 uM incubated for 24 hrs by Annexin V-FITC/PI staining based flow cytometry (reference value: 2.5 %); type: functional
[7] = tested on: K562; experiment: Induction of apoptosis in human K562 cells assessed as necrotic cells at 1 uM incubated for 24 hrs by Annexin V-FITC/PI staining based flow cytometry (reference value: 10.8 %); type: functional
[8] = tested on: K562/4; experiment: Effect on cell cycle distribution in human K562/4 cells assessed as cells with fragmented DNA at sub-G1 phase at 1 uM incubated for 24 hrs by PI staining based flow cytometry (reference value: 4 %); type: functional
[9] = Antiproliferative activity against hFB-hTERT6 cells incubated for 72 hrs by MTT assay; type: toxicity, cell-based; conditions: human
[10] = tested on: K562/4; experiment: Effect on cell cycle distribution in human K562/4 cells assessed as cells with fragmented DNA at sub-G1 phase at 0.75 uM incubated for 72 hrs by PI staining based flow cytometry (reference value: 4 %); type: functional
[11] = Selectivity index, ratio of IC50 for human hFB-hTERT6 cells to IC50 for human K562 cells; type: toxicity; conditions: hFB-hTERT6 cells and K562 cells, read-out: Ratio IC50

For `CS(=O)(=O)O.N[C@H]1CCN(C(=O)c2cc3c(O)c4c(c(O)c3[nH]2)C(=O)c2ccccc2C4=O)C1`, the inhibition [1] was “Active”, the Activity [2] was 6% and the Activity [3] was 43.7%. The Activity [4] was 21%, the Drug uptake [5] was “Active” and the Activity [6] was 24.5%. The Activity [7] was 46.2%, the Activity [8] was 30% and the IC50 at 72 h [9] was 4.2 µM. For the same molecule, the Activity [10] was 5% and the selectivity ratio [11] was 8.4.
